Reference: patent US11725189B2, “Maintenance culture of induced pluripotent stem cell-derived intestinal stem cells” (PUBLIC UNIVERSITY CORPORATION NAGOYA CITY UNIVERSITY, priority 2017, dated 2023)

Columns and labels:
TGF-β receptor ALK4 = biological target: T1, TGF-β receptor ALK4 (Homo sapiens, UniProt P36896); details: cited from earlier work
T1 sequence (P36896 24-505): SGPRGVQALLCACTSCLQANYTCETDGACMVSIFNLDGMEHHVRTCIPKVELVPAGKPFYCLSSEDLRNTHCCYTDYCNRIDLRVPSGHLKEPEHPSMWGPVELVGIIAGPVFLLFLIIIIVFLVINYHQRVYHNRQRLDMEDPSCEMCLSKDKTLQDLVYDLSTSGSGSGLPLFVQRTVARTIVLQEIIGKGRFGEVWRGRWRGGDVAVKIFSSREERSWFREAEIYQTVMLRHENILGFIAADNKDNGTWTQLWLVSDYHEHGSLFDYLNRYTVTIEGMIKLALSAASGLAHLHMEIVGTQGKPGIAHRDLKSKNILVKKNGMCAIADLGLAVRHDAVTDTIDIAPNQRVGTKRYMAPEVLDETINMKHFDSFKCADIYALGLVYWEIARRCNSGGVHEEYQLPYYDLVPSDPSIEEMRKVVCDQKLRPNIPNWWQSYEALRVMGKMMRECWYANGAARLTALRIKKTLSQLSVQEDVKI

TGF-β receptor ALK5 = biological target: T2, TGF-β receptor ALK5 (Homo sapiens, UniProt P36897); details: cited from earlier work
T2 sequence (P36897 34-503): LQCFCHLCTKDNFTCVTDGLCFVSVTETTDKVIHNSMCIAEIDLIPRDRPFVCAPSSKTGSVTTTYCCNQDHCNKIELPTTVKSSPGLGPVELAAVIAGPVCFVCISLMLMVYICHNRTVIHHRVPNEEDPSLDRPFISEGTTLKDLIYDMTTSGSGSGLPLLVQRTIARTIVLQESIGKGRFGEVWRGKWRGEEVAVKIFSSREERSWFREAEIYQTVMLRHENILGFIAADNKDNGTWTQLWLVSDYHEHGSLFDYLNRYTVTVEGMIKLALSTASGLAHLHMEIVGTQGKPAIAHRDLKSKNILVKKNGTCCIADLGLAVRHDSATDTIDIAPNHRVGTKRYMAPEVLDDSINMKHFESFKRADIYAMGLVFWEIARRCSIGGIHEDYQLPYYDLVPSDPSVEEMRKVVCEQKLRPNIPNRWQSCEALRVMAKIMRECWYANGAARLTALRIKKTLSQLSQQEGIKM

TGF-β receptor ALK7 = biological target: T3, TGF-β receptor ALK7 (Homo sapiens, UniProt Q8NER5); details: cited from earlier work
T3 sequence (Q8NER5 21-493): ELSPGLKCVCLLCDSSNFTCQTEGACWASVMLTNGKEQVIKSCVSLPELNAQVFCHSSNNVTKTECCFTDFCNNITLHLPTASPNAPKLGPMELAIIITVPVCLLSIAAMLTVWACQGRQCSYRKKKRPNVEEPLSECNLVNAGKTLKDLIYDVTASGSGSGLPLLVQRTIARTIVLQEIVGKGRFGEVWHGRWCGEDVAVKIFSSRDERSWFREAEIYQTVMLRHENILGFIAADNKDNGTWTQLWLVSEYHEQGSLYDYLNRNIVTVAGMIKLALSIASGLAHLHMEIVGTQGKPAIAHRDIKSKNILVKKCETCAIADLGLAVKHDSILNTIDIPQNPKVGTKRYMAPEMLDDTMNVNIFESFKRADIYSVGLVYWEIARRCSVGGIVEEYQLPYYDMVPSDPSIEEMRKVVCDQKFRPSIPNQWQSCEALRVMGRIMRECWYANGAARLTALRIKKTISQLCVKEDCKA

mucin 2 = experiment: Detection of mucin 2 mRNA (real-time RT-PCR) in human iPS cell-derived intestinal epithelial cells; format: cell-based
From the text: (§1) iPS cells were allowed to differentiate into intestinal stem cells, which were then subcultured once. Thereafter, the cells were subjected to a maintenance culture according to the culture method of intestinal stem cells, which had been established in the above-described studies, and were then allowed to differentiate into intestinal epithelial cells.
(§2) After the differentiated intestinal epithelial cells had been recovered, RNA was extracted using Agencourt (registered trademark) RNAdvance™ Tissue Kit, in accordance with the instruction manual included therewith.
(§3) Complementary DNA (cDNA) was synthesized using ReverTra Ace (registered trademark) qPCR RT Master Mix, in accordance with the instruction manual included therewith.
(§4) Real-Time RT-PCR was carried out on cDNA used as a template, using KAPA SYBR Fast qPCR Kit, in accordance with the instruction manual included therewith.

chromogranin A (CgA) = experiment: Detection of CgA mRNA (real-time RT-PCR) in human iPS cell-derived intestinal epithelial cells; format: cell-based
From the text: as §1, §2, §3, §4

[1] = 100 μM or 200 μM rebamipide together with 200 μM indomethacin, 6 days

Row | Compound | inhibitory activity against TGF-β receptor ALK4 (TGF-β receptor ALK4) | inhibitory activity against TGF-β receptor ALK5 (TGF-β receptor ALK5) | inhibitory activity against TGF-β receptor ALK7 (TGF-β receptor ALK7) | expression level of mucin 2 (mRNA expression level) (mucin 2; 50 μM, 100 μM and 200 μM added to the medium for 6 days, versus control (Con)) | decrease in the expression of mucin 2 (mRNA expression level) caused by indomethacin (mucin 2; [1]) | cytotoxicity (mucin 2; 200 μM added to the medium (R200)) | increase in the expression level of CgA (mRNA expression level) (chromogranin A (CgA); 50 μM, 100 μM and 200 μM added to the medium for 6 days) | decrease in the expression level of CgA (mRNA expression level) caused by indomethacin (chromogranin A (CgA); [1])
1 | Cc1cccc(-c2nn(C(=S)Nc3ccccc3)cc2-c2ccnc3ccccc23)n1 [A-83-01] | exhibited inhibitory activity | exhibited inhibitory activity | exhibited inhibitory activity | – | – | – | – | –
2 | O=C(NC(Cc1cc(=O)[nH]c2ccccc12)C(=O)O)c1ccc(Cl)cc1 (centres unmarked) [rebamipide] | – | – | – | increased | tended to be suppressed | likely to cause cytotoxicity | not particularly observed | tended to be suppressed
